Results as given in patent publication US20050282159A1, “Rpob gene of streptomyces, primer specific to streptomyces, and identification method of streptomyces having rifampin resistance or sensitivity by using the same” (priority 2001, published 2005).

Legend:
Assay in all cases: rifampin-sensitive test on Bennet solid media
Type in all cases: cell-based
Set-up in all cases: key: “(+)” indicates a genotype with rifampin-resistance; “(−)” indicates a genotype with rifampin-susceptibility
[1] = tested on: S. phaeochromogenes KCTC 9763; details: AAC genotype, 25 ug/ml rifampin, 72 hr
Procedure: (§1) The 47 strains were respectively cultured at 28° C. for 72 hr in Bennet liquid media. The culture solution was then inoculated on Bennet solid media (yeast extract 1 g/L, Beef extract 1 g/L, Tryptone 2 g/L, Glycerol 10 g/L, Agar 15 g/L) containing 25 ug/ml rifampin, and after incubation for 72 hr, rifampin-resistance was tested.

[2] = tested on: S. actuosus KCTC 9112; details: TCG (TCC) genotype, 25 ug/ml rifampin, 72 hr
Procedure: as §1

[3] = tested on: S. achromogenes KCTC 1740; details: TCG (TCC) genotype, 25 ug/ml rifampin, 72 hr
Procedure: as §1

[4] = tested on: S. galilaeus KCTC 1919; details: AAC genotype, 25 ug/ml rifampin, 72 hr
Procedure: as §1

[5] = tested on: S. alboniger KCTC 9014; details: TCG (TCC) genotype, 25 ug/ml rifampin, 72 hr
Procedure: as §1

[6] = tested on: S. argenteolus KCTC 9695; details: TCG (TCC) genotype, 25 ug/ml rifampin, 72 hr
Procedure: as §1

[7] = tested on: S. cinereoruber KCTC 9707; details: TCG (TCC) genotype, 25 ug/ml rifampin, 72 hr
Procedure: as §1

[8] = tested on: S. aculeolatus KCTC 9680; details: AAC genotype, 25 ug/ml rifampin, 72 hr
Procedure: as §1

[9] = tested on: S. acrimycini KCTC 9679; details: AAC genotype, 25 ug/ml rifampin, 72 hr
Procedure: as §1

[10] = tested on: S. flavofuscus KCTC 9737; details: AAC genotype, 25 ug/ml rifampin, 72 hr
Procedure: as §1

Measured: genotype (rifampin-resistance or susceptibility)

CO[C@H]1/C=C/O[C@@]2(C)Oc3c(C)c(O)c4c(O)c(c(/C=N/N5CCN(C)CC5)c(O)c4c3C2=O)NC(=O)/C(C)=C\C=C\[C@H](C)[C@H](O)[C@@H](C)[C@@H](O)[C@@H](C)[C@H](OC(C)=O)[C@@H]1C [rifampin]
−: [2] | [3] | [5] | [6] | [7]
+: [1] | [4] | [8] | [9] | [10]
